Test results taken from PMC2688680, “Identification, expression and characterisation of a Babesia bovis hexose transporter” (Molecular and Biochemical Parasitology, 2008).

Columns and labels:
[1] = biological target: T1, B. bovis hexose transporter 1 (BboHT1) (Babesia bovis, UniProt B0LKY8); assay: competition with […]D-glucose uptake in Xenopus oocytes at […] ([…] reduction); format: cell-based
T1 construct: full-length, 472 amino acid residues, Israel isolate, expressed in Xenopus laevis oocytes

[2] = biological target: T1, B. bovis hexose transporter 1 (BboHT1); assay: radiotracer D-fructose uptake in Xenopus oocytes versus water-injected controls; format: cell-based
[3] = biological target: T1, B. bovis hexose transporter 1 (BboHT1); assay: inhibition of […]D-glucose uptake in Xenopus oocytes expressing BboHT1; format: cell-based
[4] = substrate: OC[C@H]1OC(O)[C@H](O)[C@@H](O)[C@@H]1O; assay: radiotracer D-glucose influx kinetics in Xenopus oocytes (Km); format: cell-based, Babesia bovis; settings: hydroxyl positions at O-4 and O-6 important for ligand binding

OC[C@H]1OC[C@H](O)[C@@H](O)[C@@H]1O [1-DOG, 1-deoxy-D-glucose]
competition with [14C]D-glucose uptake in Xenopus oocytes at 10 mM (>50% reducti) [1]: 1-Deoxy-D-glucose, 2-deoxy-D-glucose, D-mannose (the 2-epimer of glucose), 3-deoxy-D-glucose, and 3-O-methyl-D-glucose all reduced D-glucose uptake via BboHT1

OC[C@H]1OC(O)C[C@@H](O)[C@@H]1O (stereo partly drawn) [2-DOG, 2-deoxy-D-glucose]
competition with [14C]D-glucose uptake in Xenopus oocytes at 10 mM (>50% reducti) [1]: 1-Deoxy-D-glucose, 2-deoxy-D-glucose, D-mannose (the 2-epimer of glucose), 3-deoxy-D-glucose, and 3-O-methyl-D-glucose all reduced D-glucose uptake via BboHT1

OC[C@H]1OC(O)(CO)[C@@H](O)[C@@H]1O (stereo partly drawn) [D-fructose]
radiotracer D-fructose uptake in Xenopus oocytes versus water-injected controls [2]: D-Fructose uptake also increased in oocytes expressing BboHT1 when compared with uptake in water-injected controls

C=CCCCCCCCCCO[C@H]1[C@H](O)[C@@H](CO)OC(O)[C@@H]1O (stereo partly drawn) [compound 3361, 3-O-(undec-10-en)-yl-D-glucose]
Ki [3]: 4.1 ± 0.9 µM

B1: B. bovis hexose transporter 1 (BboHT1) (Babesia bovis) (protein)
chain: MRSYFVYALALGALVAFNFGLNTVSFVASREFAVMDLGWCAGQDKLYECSRASTYSDIIAAGTFIGGAVGSLLIGYFAKFGRRKGMLIIHIINVIGSCMSTSASCFTMFLLGRLIAGVSVGASGVVAIYLSEICTNESRGKFGIVYPLFICIGQFLMVAWQLLHGRILGADNKVVTMDDLKTFDKFVWRMAQFWPVVFSIIAVVIMVFIVTDDTPYVLLNEGKEEEARSVISKLHGEENADAITAELKADIEAQKANSDKLSLLEALKVAQYRKVIFICCGLGIVQQFSGINIFVANASTLFISIMGRTVIANVMGLVGILCLMVTMISLSFFIEKFGRKTLLLAGIFVSSVFMVPAVIIKLAAGKDAKWAEYIMVTGCMGFMVGFAIGLGGVMWLYLAEAMGAEYKDAGFGLATCANWLFAAIVVMTSGMLIKFNENFTYALYAGFGVLGFVYVALLIKETKGIPLGQAYA
notes: full-length, 472 amino acid residues, Israel isolate, expressed in Xenopus laevis oocytes
Km [4]: 840 ± 540 µM
